Assay results: patent publication US20250154130A1, “NOVEL THR BETA ANALOGS AND USES THEREOF” (MADRIGAL PHARMACEUTICALS, INC., priority 2022, published 2025)

Legend:
TR alpha LBD-GST = target: T1, TR alpha LBD-GST (Homo sapiens, UniProt P10827); assay: Thyroid Receptor Alpha Coactivator - Agonist (LanthaScreen TR-FRET coactivator recruitment assay); type: biochemical; conditions: 1% DMSO, relative to T3 response
T1 construct: incubated with the TR alpha LBD-GST or TR beta LBD-GST; purchased ThermoFIsher
Procedure: Thyroid receptor beta and thyroid receptor alpha coactivator recruitment assays were performed using LanthaScreen™ TR-FRET TR alpha or beta Coactivator Assay Kits (ThermoFIsher). The control agonist 3,3′,5-Triiodo-L-thyronine sodium salt, T3 (SIGMA) was used to validate the assay. Test compound and/or vehicle was incubated with the TR alpha LBD-GST or TR beta LBD-GST and coactivator peptide (Fluorescein-SRC2-2 (LKEKHKILHRLLQDSSSPV) (SEQ ID NO: 1)) for 30 minutes at RT. Determination of the amount of complex formed was read spectrofluorimetrically (excitation: 337 nm, emission: 520/490 nm) on a PHERAstar FS instrument (BMG). […]

TR beta LBD-GST = target: T2, TR beta LBD-GST (Homo sapiens, UniProt P10828); assay: Thyroid Receptor Beta Coactivator - Agonist (LanthaScreen TR-FRET coactivator recruitment assay); type: biochemical; conditions: 1% DMSO, relative to T3 response
T2 construct: incubated with the TR alpha LBD-GST or TR beta LBD-GST; purchased ThermoFIsher
T2 sequence (P10828 217-461 limits assumed): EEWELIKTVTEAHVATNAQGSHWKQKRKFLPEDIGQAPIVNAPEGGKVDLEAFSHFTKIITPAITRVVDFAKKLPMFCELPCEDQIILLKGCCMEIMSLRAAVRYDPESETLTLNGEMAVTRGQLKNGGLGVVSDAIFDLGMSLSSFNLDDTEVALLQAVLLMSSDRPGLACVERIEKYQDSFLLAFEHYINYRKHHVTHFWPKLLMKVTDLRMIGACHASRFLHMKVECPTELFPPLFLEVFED
Procedure: Thyroid receptor beta and thyroid receptor alpha coactivator recruitment assays were performed using LanthaScreen™ TR-FRET TR alpha or beta Coactivator Assay Kits (ThermoFIsher). The control agonist 3,3′,5-Triiodo-L-thyronine sodium salt, T3 (SIGMA) was used to validate the assay. Test compound and/or vehicle was incubated with the TR alpha LBD-GST or TR beta LBD-GST and coactivator peptide (Fluorescein-SRC2-2 (LKEKHKILHRLLQDSSSPV) (SEQ ID NO: 1)) for 30 minutes at RT. Determination of the amount of complex formed was read spectrofluorimetrically (excitation: 337 nm, emission: 520/490 nm) on a PHERAstar FS instrument (BMG). […] Compounds were screened at 30, 10, 3, 1, 0.3, 0.1, and 0.03 μM.

T1 sequence (P10827 163-410 isoform P10827-2 limits assumed, other chains not shown): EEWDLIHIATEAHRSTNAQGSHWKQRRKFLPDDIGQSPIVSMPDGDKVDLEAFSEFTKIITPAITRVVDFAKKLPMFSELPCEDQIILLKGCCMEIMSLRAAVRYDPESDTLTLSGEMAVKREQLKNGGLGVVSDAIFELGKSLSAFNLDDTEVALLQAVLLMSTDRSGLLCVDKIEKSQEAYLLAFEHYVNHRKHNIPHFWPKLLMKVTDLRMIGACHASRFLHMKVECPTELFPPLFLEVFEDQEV

What does the source list for `N#Cc1cn(-c2cc(Cl)c(Oc3n[nH]c(=O)c4ccccc34)c(Cl)c2)c(=O)[nH]c1=O` [Compound g, 1-(3,5-dichloro-4-((4-oxo-3,4-dihydrophthalazin-1-yl)oxy)phenyl)-2,4-dioxo-1,2,3,4-tetrahydropyrimidine-5-carbonitrile]?
Agonist Response (TR alpha LBD-GST; test compound 10 nM): 1.1; Agonist Response (TR alpha LBD-GST; test compound 0.03 mcM): 1.4; Agonist Response (TR alpha LBD-GST; test compound 0.1 mcM): 2.2; Agonist Response (TR alpha LBD-GST; test compound 0.3 mcM): 3.9; Agonist Response (TR alpha LBD-GST; test compound 1 mcM): 12.7; Agonist Response (TR alpha LBD-GST; test compound 3 mcM): 19.2; Agonist Response (TR alpha LBD-GST; test compound 10 mcM): 19.5; Agonist Response (TR alpha LBD-GST; test compound 30 mcM): 18.6; Agonist Response (TR beta LBD-GST; test compound 10 nM): −4.5; Agonist Response (TR beta LBD-GST; test compound 0.03 mcM): −1.2; Agonist Response (TR beta LBD-GST; test compound 0.1 mcM): 0.7; Agonist Response (TR beta LBD-GST; test compound 0.3 mcM): 10.5; Agonist Response (TR beta LBD-GST; test compound 1 mcM): 28.7; Agonist Response (TR beta LBD-GST; test compound 3 mcM): 31.1; Agonist Response (TR beta LBD-GST; test compound 10 mcM): 32.6; Agonist Response (TR beta LBD-GST; test compound 30 mcM): 31.8
